Test results published in patent publication US20170231911A1, “METHODS AND COMPOSITIONS FOR IMPROVING OUTCOMES OF LIPOSOMAL CHEMOTHERAPY” (Merrimack Pharmaceuticals, Inc., priority 2013, published 2017).

Legend:
[1] = system: BT474-M3 breast cancer tumor cells; settings: cyclophosphamide 170 mg/kg pre-dose
Procedure: NCR/nu mice are inoculated with 15×10^6 BT474-M3 cells (into the mammary fat pad, in 50 μl media), 20×10^6 MDA-MB-453 (s.c. into the right flank of the mouse in 100 μl of media) or 10×10^6 MCF-7 HER2 cells (into the mammary fat pad, in 50 μl media). […] When tumors reached an average volume of 200-300 mm^3, mice are pre-dosed or not with cyclophosphamide (i.p. 170 mg/kg) at different time points as indicated. Mice are subsequently dosed with DiI5-labeled anthracycline-loaded anti-HER2 immunoliposome-targeted liposomal doxorubicin (3 mg/kg), DiI5-labelled liposomal doxorubicin PLD (3 mg/kg), or free doxorubicin all at (3 mg/kg). […]
Tumor, heart and the dorsal skin are collected and frozen at −80° for further HPLC doxorubicin quantification.
Tumors, hearts and dorsal skin are weighed and minced. […] Supernatants and doxorubicin standards are analyzed by HPLC (Dionex) using a C18 reverse phase column (Synergi Polar-RP 80A 250×4.60 mm 4 μm column). […] The doxorubicin peak is detected at 6.9 min using an in-line fluorescence detector excited at 485 nm, and emitting at 590 nm. The extraction efficiency of doxorubicin from tumor, heart and skin tissues is estimated using internal control tissues spiked with known amounts of doxorubicin, and sample readings are corrected to account for the extraction efficiency. […]

[2] = 96 hours after cyclophosphamide treatment

Procedure for BT474-M3 tumor: Slides are air-dried and mounted with ProLong® Gold with Hoechst® stain to counterstain nuclei. Cleaved caspase 3, γ-H2AX, cleaved PARP and cytokeratin stainings are performed on FFPE-sections (5 μm thick). After deparaffinization and rehydration, heat-mediated antigen retrieval is performed on a in a pre-treatment module (Thermo Scientific, Waltham, Mass.) in citrate buffer (pH 6) for 25 min at 102° C. After antigen retrieval, slides are stained on a Lab Vision Autostainer® 360 (Thermo Scientific). Endogenous peroxidase activity is blocked with Peroxidazed® 1 (10 min at RT) followed by a washing step with TBST and a protein blocking step with Background Sniper (10 min at RT). Next, slides are incubated with the primary antibodies diluted in Da Vinci Green or Signal Stain® Antibody diluent for 1 hr at room temperature (RT). After washing, slides are incubated with secondary antibodies for 30 min at RT Antibodies used are goat anti-mouse Alexa Fluor® 488 and goat anti-rabbit Alexa Fluor® 647, diluted in Da Vinci Green, for the γ-H2AX and cleaved caspase 3 antibodies, respectively; and EnVision®+ System-HRP labeled Polymer anti-rabbit (for the signal amplification of the cleaved PARP signal) containing the secondary antibody for cytokeratin (goat anti-mouse Alexa Fluor® 555) for the cleaved PARP and cytokeratin double staining. After washing, for the signal amplification of cleaved PARP, samples are incubated with TSA™ Cyanine 5 Tyramide Reagent for 10 min at RT. Slides are washed and counterstained with Hoechst followed by a wash step and mounting with ProLong® Gold. Slides are imaged on an Aperio® FL slide scanner at 20× magnification.
Images are analyzed using rulesets written in Definiens® Developer XD 2 (Definiens, Munich, Germany). Images are analyzed as full tumor or heart tissues. […]
The extent of cleaved PARP positive tumor cells is determined in cleaved PARP and cytokeratin double stained tumor sections. […]

O.O=P1(N(CCCl)CCCl)NCCCO1 (stereo not shown) [cyclophosphamide, 2-[bis(2-chloroethyl)amino]tetrahydro-2H-1,3,2-oxazaphosphorine 2-oxide monohydrate]
effect of cyclophosphamide on non-target organs such as skin or heart [1]: no effects were observed | effect on non-tumor cells (BT474-M3 tumor; [2]): non-tumor cells were unaffected | interstitial space vs control (BT474-M3 tumor; [2]): significantly more interstitial space than the control cell sample | tumor cell apoptosis, tumor cell density and interstitial space (BT474-M3 tumor; tissue harvested 48 hr-120 hr post cyclophosphamide): induction of tumor cell apoptosis and consequent reduction of tumor cell density and increase in interstitial space
